The values that follow are results of earlier work, collected in patent US20110064816A1 (DR. REDDY'S LABORATORIES LTD., priority 2008, published 2011).

The conditions of the data set: exposed to heat, moisture, light and low pH conditions.

Structures are written as SMILES. Structures can show the parent of a compound that is named as a salt.

As to `CC(C)c1c(C(=O)Nc2ccccc2)c(-c2ccccc2)c(-c2ccc(F)cc2)n1CC[C@@H](O)C[C@@H](O)CC(=O)O` (relative stereo) [Atorvastatin calcium, [R-(R*,R*)]-2-(4-fluorophenyl)-β,δ-dihydroxy-5-(1-methylethyl)-3-phenyl-4-[(phenylamino)carbonyl]-1H-pyrrole-1-heptanoic acid, calcium salt (2:1) trihydrate], the “Degradation from the carboxylic form to a lactone form” value was “susceptible to degradation”.
